# Data reported in patent publication US12605358B2, “Composition for preventing or treating nervous system diseases comprising compound that inhibits mTOR signaling pathway as active ingredient” (ALIAD BIOPHARMA, priority 2021, dated 2026).
# Experiments:
# Assay type in all cases: in vivo
# [1] = tested on: 5xFAD transgenic mice; assay: NFT removal, AT8/MAP2 staining of brain slices
# Description: (§1) 5xFAD animals were administered with HN-1703 at three doses for 14 days to male heterozygotes aged 6 months (all born within 3 days). The behaviors of mice were measured in a dark cycle in which the mice were active while alternating light and dark in a 12-hour cycle in a breeding room chamber, and the mice were freely accessible to food and water and bred in compliance with experimental animal ethical guidelines of Kyung Hee University. In each group, the HN-1703 was intraperitoneally injected at the same time once a day in a volume of 100 μl to 12 mice in a normal group (wild type littermate), 9 5xFAD mice in a vehicle (DMSO administration), 8 5xFAD mice in a 5 mg/kg administered group, 9 5xFAD mice in a 10 mg/kg administered group, and 9 5xFAD mice in a 20 mg/kg administered group. […] In a behavioral measurement room, humidity (40 to 60%) and temperature (22 to 26° C.) were maintained, and reflected light was maintained to avoid sound and light effects. Behavioral measures were measured in Y-maze, Morris Water Maze, and Passive Avoidance test for 18 days in sequence.
# A brain slice immunostaining method was modified and used as described in Heo H et al. (J Ethnopharmacol, 2009). Mice were transcardially perfused with 4% PFA. After being immersed and fixed in 4% PFA for 4 hours, the brain tissue was unfrozen in 30% sucrose, frozen in an optimal cutting temperature (OCT) mixture, and stored at −80° C. Brain tissue slices were sectioned in a coronal direction at a thickness of 35 μm. The brain tissue slices were immersed in a storage solution (30% glycerol, 30% ethylene glycol, PBS) and stored at 4° C. The stored brain slices were permeabilized in 0.5% Triton X-100 for 20 minutes and shaken in 2 N HCl for 30 minutes at 37° C. Then, the brain slices were blocked in a free-floating state for 2 hours in 15% standard serum, 3% bovine serum albumin (BSA, bio-WORLD, Dublin, OH, USA) and 0.1% Triton X-100. The slices were shaken with a first antibody for 16 hours at 4° C. […]
# [2] = tested on: 5xFAD transgenic mice; assay: Neuroinflammation, Iba-1 staining of brain slices; settings: hippocampal dentate gyrus; compared to a 5xFAD-DMSO control group; FIG. 11
# Description: as §1
# A brain slice immunostaining method was modified and used as described in Heo H et al. (J Ethnopharmacol, 2009). Mice were transcardially perfused with 4% PFA. […]
# [3] = tested on: 5xFAD transgenic mice; assay: Autophagy indicators in brain (LC3/GFAP and LC3/MAP2 staining, LC3 immunoblot)
# Description: as §1
# A brain slice immunostaining method was modified and used as described in Heo H et al. (J Ethnopharmacol, 2009). Mice were transcardially perfused with 4% PFA. After being immersed and fixed in 4% PFA for 4 hours, the brain tissue was unfrozen in 30% sucrose, frozen in an optimal cutting temperature (OCT) mixture, and stored at −80° C. Brain tissue slices were sectioned in a coronal direction at a thickness of 35 μm. The brain tissue slices were immersed in a storage solution (30% glycerol, 30% ethylene glycol, PBS) and stored at 4° C. The stored brain slices were permeabilized in 0.5% Triton X-100 for 20 minutes and shaken in 2 N HCl for 30 minutes at 37° C. Then, the brain slices were blocked in a free-floating state for 2 hours in 15% standard serum, 3% bovine serum albumin (BSA, bio-WORLD, Dublin, OH, USA) and 0.1% Triton X-100. The slices were shaken with a first antibody for 16 hours at 4° C. Thereafter, a second antibody complementary to the first antibody was attached at room temperature (22±1° C.) for 45 minutes. Then, the nuclei were washed with physiological saline (PBS) containing 1 μg/ml PI (propidiumiodide, Sigma) or DAPI (1:4000), and then placed on a slide glass and sealed using an aqueous mount, and observed under a confocal scanning microscope for tissue observation (LSM 810 Carl Zeiss, Oberkochen, Germany).
# The first antibody used antibodies such as LC3-II (MBL, PM036), MAP2 (sigma, m4403) [for LC3/MAP2 double staining], 6E10 (biolegend, 803001) [for LC3/6E10; ICC double staining], GFAP (abcam, ab53554) [for LC3/GFAP double staining], Iba-1 (wako, 011-27991) [for LC3/IBA1 double staining], Iba-1 (Wako, 019-19741) [for ThioS/Iba1/PI triple staining], Sox2 (R&D system, MAB2018) [for SOX2/DCX/NeuN triple staining], DCX (Santa Cruz, sc8066) [for SOX2/DCX/NeuN triple staining], AT8 (Invitrogen, MN1020) [for AT8/MAP2 double staining], MAP2 (abcam, ab32454) [for AT8/MAP2 double staining], NeuN (Millipore, MAB377B), Tuj1 (Sigma, T8660), Nestin (Millipore, MAB353), GFAP (Chemicon), and the like, and the second antibody used Alexa 488, Cy3, Alexa 488 (Invitrogen, A21202), Cy3 (Jackson lab, 715-165-151), and Alexa 488 (Jackson lab, 711-546-152).
# When PS1 was KO, lysosome acidification was weakened and autophagy was inhibited (Lee et al. (2010) Cell 141: 1146-1158), and in 5xFAD mice with mutations in PS1, the generation of autophagy was somewhat attenuated and may be activated in the presence of endogenous WT PS1. In other words, there were example in which cellular conditions that inhibit mTOR, such as lack of amino acids, or suppression of inflammation activated autophagy, and treatment with a cAMP or β-adrenergic agonist restored lysosomal acidification in PS1 mutant cells (Coffey et al. (2014) Neuroscience 263: 111-124). […]
smiles,measurement,setting,value
"COc1cc(OC)c2c(=O)c3cc4c(cc3oc2c1)OCO4 [HN-1703, 7,9-dimethoxy-10H-[1,3]dioxolo[4,5-b]xanthen-10-one]",decrease of NFTs compared to the 5xFAD-DMSO group,"[1]; 20 mg/kg, dentate gyrus, FIG. 9",≥ 70%
same,NFT (AT8 staining),"[1]; 5 to 20 mg/kg, all three brain regions examined, FIG. 9",decreased in a dose-dependent manner
same,number of neurons stained with NFT (AT8+/MAP2+),"[1]; dentate gyrus, FIG. 10",decreased in a dose-dependent manner
same,Iba-1 staining (activated microglia),[2],significantly reduced
same,LC3-II staining,"[3]; 5 mg/kg to 10 mg/kg, FIG. 12",stained at the level of a WT normal group
same,LC3-II increase compared to the 5xFAD-DMSO control group,"[3]; 20 mg/kg, FIG. 12",2.5 times
same,LC3-II increase compared to the WT normal group,"[3]; 20 mg/kg, FIG. 12",1.4 times
same,LC3-II staining in the axon of the hippocampal pyramidal neuron,"[3]; 20 mg/kg, FIG. 13",recovered to the level of the WT normal group
same,autophagic vacuoles near the nuclei of large neurons in the subgranular cell layer of the hippocampus,[3]; FIG. 14,significantly increased
same,ratio of the autophagy activation marker LC3-II/LC3-I (brain immunoblot),[3]; FIG. 15,increased
same,LC3-II staining,"[3]; hippocampal dentate gyrus, compared to a 5xFAD-DMSO control group, FIG. 12",increased in a dose-dependent manner
same,astrocytes stained with the GFAP antibody,"[3]; increased in 5xFAD-DMSO vs WT, FIG. 12",decreased to a normal level
